Laboratory results reported in patent publication US20190151371A1, “PROCESS FOR CONTINUOUS CELL CULTURE OF ISLET CELLS” (Georgetown University, priority 2016, published 2019).

Columns and labels:
airway epithelial cells = settings: cited from earlier work
islet cells = test: Islet cell culture with upstream or downstream ROCK pathway inhibitor in place of a ROCK inhibitor; format: cell-based, human; settings: used in the culture conditions in place of a ROCK inhibitor
Description: As used herein, inhibiting ROCK can mean to reduce the activity, function or expression of at least one of ROCK1 or ROCK2. […] In general, ROCK phosphorylates LIM kinase and myosin light chain (MLC) phosphatase after being activated through binding of GTP-bound Rho. One embodiment of the present invention thus involves blocking the upstream pathway of ROCK1 and/or ROCK2, for example GTP-bound Rho, such that ROCK1 and/or ROCK2 is not activated or its activity is reduced over untreated cells. Other upstream effectors include but are not limited to, integrins, growth factor receptors, including but not limited to, TGF-beta and EGFR, cadherins, G protein coupled receptors and the like. Another embodiment of the present invention thus involves blocking the activity, function or expression of downstream effector molecules of activated ROCK1 and/or ROCK2 such that ROCK1 and/or ROCK2 cannot propagate any signal or can only propagate a reduced signal over untreated cells. Downstream effectors include but are not limited to, Myosin phosphatase-targeting protein (MYPT), vimentin, LIMK, Myosin light chain kinase, NHE1, cofilin, Myosin II and the like. […] Upstream or downstream inhibition of ROCK, in place of direct ROCK inhibition and in conjunction with the other culture conditions described and required herein, may or may not generate conditionally immortalized islet cells. […]

## O=S(=O)(c1cccc2cnccc12)N1CCCNCC1 [HA 1077, fasudil]
Airway epithelial cells
  effect on airway epithelial cells: induces membrane ruffling, loss of actin stress fibers and apoptosis

## C[C@@H](N)[C@H]1CC[C@H](C(=O)Nc2ccncc2)CC1 [Y-27632]
Airway epithelial cells
  effect on airway epithelial cells: induces membrane ruffling, loss of actin stress fibers and apoptosis

## Cc1ccc2c(c1)C(=O)C1(O)CCN(c3ccccc3)C1=N2 (stereo not shown) [blebbistatin]
Islet cells
  effect on cell differentiation and proliferation in vitro: allow the cells to bypass differentiation and allow proliferation in vitro

## C3 transferase
Islet cells
  effect on cell differentiation and proliferation in vitro: allow the cells to bypass differentiation and allow proliferation in vitro
